Reference: patent US12162867B2, “Inhibitors of RNA helicase DHX9 and uses thereof” (ACCENT THERAPEUTICS, INC., priority 2022, dated 2024)
Where two headings read alike, the source gives them in different places.

Columns and labels:
Format in all cases: cell-based
[1] = test system: circBRIP1 in HCT116 cells; experiment: DHX9 circBRIP1 cellular target engagement TaqMan Multiplex assay (qPCR); conditions: Homo sapiens, read-out: DHX9 Cellular Target Engagement EC50
[2] = test system: LS411N cells; experiment: DHX9 cellular proliferation assay (CellTiter-Glo), LS411N (CRC-MSI); conditions: Homo sapiens, LS-411N, LS411N, performed at Pharmaron, read-out: LS411N (CRC-MSI-H) Antiproliferative IC50
[3] = test system: NCI-H747 cells; experiment: DHX9 cellular proliferation assay (CellTiter-Glo), NCI-H747 (CRC-MSS); conditions: Homo sapiens, performed at Pharmaron, read-out: H747 (CRC-MSS) Antiproliferative IC50
[4] = HCT-116, circBRIP1, HCT116 cells, * Taqman assay was used
[5] = HCT-116, 72 h, circBRIP1, HCT116 cells, 72 hours, Taqman assay (marked *)

Structure (SMILES) | EC50 [1, 4] [nM] | IC50 ([3]; NCI-H747, NCI-H747) [nM] | EC50 [1, 5] [nM] | IC50 ([3]; NCI-H747, NCI-H747, CRC-MSS) [nM] | IC50 [2] [nM] | IC50 ([2]; CRC-MSI-H) [nM]
Cn1cc(C(=O)Nc2cc(Cl)cc(NS(C)(=O)=O)c2)cc1-c1ncc(OC(C)(C)C)cc1F [Example 557] | 92.6 | 2300 | – | – | 131 | –
Cc1sc(C(=O)Nc2cc(Cl)cc(NS(C)(=O)=O)c2)cc1-c1ncc(C#N)cn1 [Example 585] | 65.1 | > 10000 | – | – | 208 | –
CCOc1cnc(-c2cc(C(=O)Nc3cc(Cl)cc(NS(=O)(=O)CC)c3)sc2C)nc1 [Example 365] | – | – | 33.9 | > 10000 | – | 116
Cn1cc(C(=O)Nc2cc(Cl)cc(NS(C)(=O)=O)c2)cc1-c1cccc(N2CC(F)(F)C2)n1 [Example 551] | 127 | 3500 | – | – | 225 | –
Cn1cc(C(=O)Nc2cc(Cl)cc(NS(C)(=O)=O)c2)cc1-c1ncc(N2CC(C(F)(F)F)C2)cc1F [Example 524, N-(3-chloro-5-methanesulfonamidophenyl)-5-{3-fluoro-5-[3-(trifluoromethyl)azetidin-1-yl]pyridin-2-yl}-1-methyl-1H-pyrrole-3-carboxamide] | 76.6 | 6290 | – | – | 138 | –
CCS(=O)(=O)Nc1cc(Cl)cc(NC(=O)c2cc(-c3ccc(F)cn3)c(C)s2)c1 [Example 346] | – | – | 43.8 | 7340 | – | 71.6
CC(C)(C)Oc1cnc(-c2csc(C(=O)Nc3cc(Cl)cc(NS(C)(=O)=O)c3)c2)nc1 [Example 379] | – | – | 56.6 | 4710 | – | 83
CS(=O)(=O)Nc1cc(Cl)cc(NC(=O)c2cc(-c3ncc(C(F)(F)F)cn3)cs2)c1 [Example 369] | – | – | 86.8 | > 10000 | – | 227
Cn1cc(C(=O)Nc2cc(Cl)cc(NS(C)(=O)=O)c2)cc1-c1ncc(N2CC(F)(F)C2)cc1OCc1cnco1 [Example 733] | 88.3 | > 10000 | – | – | 206 | –

The next lines start with results.

EC50 [1, 4] [nM] | IC50 ([3]; NCI-H747, NCI-H747) [nM] | EC50 [1, 5] [nM] | IC50 ([3]; NCI-H747, NCI-H747, CRC-MSS) [nM] | Structure (SMILES) | IC50 [2] [nM] | IC50 ([2]; CRC-MSI-H) [nM]
18.7 | 3100 | – | – | Cc1sc(C(=O)Nc2cc(Cl)cc(NS(C)(=O)=O)c2)cc1-c1ncc(OC(C)(C)CO)cn1 [Example 678] | 391 | –
16.9 | 7410 | – | – | Cc1sc(C(=O)Nc2cc(Cl)cc(NS(C)(=O)=O)c2)cc1-c1ncc(N2CCC(F)(F)C2)cn1 [Example 479] | 37.4 | –
24.8 | > 10000 | – | – | Cc1sc(C(=O)Nc2cc(Cl)cc(NS(C)(=O)=O)c2)cc1-c1ccc(N2CC3(C2)CC(F)(F)C3)cn1 [Example 499] | 65.7 | –
26.1 | 4570 | – | – | Cc1sc(C(=O)Nc2cc(Cl)cc(NS(C)(=O)=O)c2)cc1-c1ncc(F)cc1OCc1cnco1 [Example 732] | 34.1 | –
38 | 9880 | – | – | COC(=O)N1CCN(c2ccc(-c3cc(C(=O)Nc4cc(Cl)cc(NS(C)(=O)=O)c4)cn3C)nc2)CC1 [Example 596] | 172 | –
26.9 | 3190 | – | – | Cn1cc(C(=O)Nc2cc(Cl)cc(NS(C)(=O)=O)c2)cc1-c1ncc(OC2CN(CC(F)F)C2)cc1F [Example 614] | 53.1 | –
42.1 | 2170 | – | – | Cc1cc(C(=O)Nc2cc(Cl)cc(NS(C)(=O)=O)c2)cn1-c1ncc(N2CC3(C2)CC(F)(F)C3)cn1 [Example 413] | 138 | –
13.5 | 6630 | – | – | Cc1sc(C(=O)Nc2cc(Cl)cc(NS(C)(=O)=O)c2)cc1-c1ncc(N2CCC3(CC2)COC3)cc1F [Example 474] | 87.2 | –
20.5 | 8830 | – | – | CN1CC(Oc2cnc(-c3cc(C(=O)Nc4cc(Cl)cc(NS(C)(=O)=O)c4)cn3C)c(F)c2)C1 [Example 611] | 133 | –
31.5 | 8770 | – | – | Cn1cc(C(=O)Nc2cc(Cl)cc(NS(C)(=O)=O)c2)cc1-c1ncc(N2CCC3(CC2)COC3)cc1F [Example 475] | 81.2 | –
19.4 | > 10000 | – | – | COc1cc(N2CC(F)(F)C2)cnc1-n1cc(C(=O)Nc2cc(Cl)cc(NS(C)(=O)=O)c2)cc1C [Example 421] | 114 | –
